Experimental data: ChEMBL document CHEMBL4665784, “Discovery of an Inhibitor for the TREK-1 Channel Targeting an Intermediate Transition State of Channel Gating” (J Med Chem, 2020)
Active and inactive are the calls of the source. No cut-off for these calls is given here.

How the values were obtained:
Type in all cases: cell-based
[1] = biological target: T1, Potassium channel subfamily K member 2 (Homo sapiens) (UniProt O95069); experiment: (§1) Inhibition of human TREK1 at intermediate transition state expressed in CHO cells by whole-cell patch-clamp electrophysiological method
T1 sequence (whole entry): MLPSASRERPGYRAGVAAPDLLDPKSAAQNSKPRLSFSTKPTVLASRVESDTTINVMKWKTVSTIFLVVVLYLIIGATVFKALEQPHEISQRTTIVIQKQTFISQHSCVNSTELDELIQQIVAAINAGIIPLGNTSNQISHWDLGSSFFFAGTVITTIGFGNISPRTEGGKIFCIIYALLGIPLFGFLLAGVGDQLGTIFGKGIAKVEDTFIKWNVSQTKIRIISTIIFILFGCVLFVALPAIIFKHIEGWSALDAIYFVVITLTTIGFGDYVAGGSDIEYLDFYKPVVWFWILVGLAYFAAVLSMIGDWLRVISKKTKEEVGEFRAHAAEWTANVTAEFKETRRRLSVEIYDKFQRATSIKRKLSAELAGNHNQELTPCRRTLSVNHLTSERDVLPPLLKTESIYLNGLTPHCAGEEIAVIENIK

[2] = biological target: T2, Potassium channel subfamily K member 2 (Homo sapiens, UniProt O95069); experiment: as §1
T2 sequence (O95069 whole entry): T1 sequence (whole entry)

[3] = biological target: T1, Potassium channel subfamily K member 2 (Homo sapiens); experiment: Inhibition of human TREK1 in open state expressed in CHO cells in presence of 10 uM TREK1 activator arachidonic acid by whole-cell patch-clamp electrophysiological method
[4] = biological target: T1, Potassium channel subfamily K member 2 (Homo sapiens); experiment: Inhibition of human TREK1 T211A mutant at intermediate transition state expressed in CHO cells by whole-cell patch-clamp electrophysiological method
[5] = biological target: T3, Potassium channel subfamily K member 4 (Homo sapiens) (UniProt Q9NYG8); experiment: Inhibition of human TRAAK at intermediate transition state expressed in CHO cells by whole-cell patch-clamp electrophysiological method
T3 sequence (whole entry): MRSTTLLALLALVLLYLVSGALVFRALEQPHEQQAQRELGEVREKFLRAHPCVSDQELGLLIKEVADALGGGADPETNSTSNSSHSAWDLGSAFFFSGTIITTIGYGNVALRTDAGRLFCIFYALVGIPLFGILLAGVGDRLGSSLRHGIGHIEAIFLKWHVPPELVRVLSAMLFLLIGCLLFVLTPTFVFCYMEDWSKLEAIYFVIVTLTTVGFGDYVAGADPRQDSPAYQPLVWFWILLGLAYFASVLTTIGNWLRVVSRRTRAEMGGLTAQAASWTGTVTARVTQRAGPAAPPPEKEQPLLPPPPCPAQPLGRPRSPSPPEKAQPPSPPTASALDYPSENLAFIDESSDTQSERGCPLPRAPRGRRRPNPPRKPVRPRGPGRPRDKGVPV

[6] = biological target: T1, Potassium channel subfamily K member 2 (Homo sapiens); experiment: Inhibition of human TREK1 W295A mutant at intermediate transition state expressed in CHO cells by whole-cell patch-clamp electrophysiological method
[7] = biological target: T1, Potassium channel subfamily K member 2 (Homo sapiens); experiment: Inhibition of human TREK1 D294A mutant at intermediate transition state expressed in CHO cells by whole-cell patch-clamp electrophysiological method
[8] = biological target: T1, Potassium channel subfamily K member 2 (Homo sapiens); experiment: Inhibition of human TREK1 M291A mutant at intermediate transition state expressed in CHO cells by whole-cell patch-clamp electrophysiological method
[9] = biological target: T1, Potassium channel subfamily K member 2 (Homo sapiens); experiment: Inhibition of human TREK1 V288A mutant at intermediate transition state expressed in CHO cells by whole-cell patch-clamp electrophysiological method
[10] = biological target: T1, Potassium channel subfamily K member 2 (Homo sapiens); experiment: Inhibition of human TREK1 S290A mutant at intermediate transition state expressed in CHO cells by whole-cell patch-clamp electrophysiological method
[11] = biological target: T4, Potassium channel subfamily K member 10 (Homo sapiens) (UniProt P57789); experiment: Inhibition of human TREK2 at intermediate transition state expressed in CHO cells by whole-cell patch-clamp electrophysiological method
T4 sequence (whole entry): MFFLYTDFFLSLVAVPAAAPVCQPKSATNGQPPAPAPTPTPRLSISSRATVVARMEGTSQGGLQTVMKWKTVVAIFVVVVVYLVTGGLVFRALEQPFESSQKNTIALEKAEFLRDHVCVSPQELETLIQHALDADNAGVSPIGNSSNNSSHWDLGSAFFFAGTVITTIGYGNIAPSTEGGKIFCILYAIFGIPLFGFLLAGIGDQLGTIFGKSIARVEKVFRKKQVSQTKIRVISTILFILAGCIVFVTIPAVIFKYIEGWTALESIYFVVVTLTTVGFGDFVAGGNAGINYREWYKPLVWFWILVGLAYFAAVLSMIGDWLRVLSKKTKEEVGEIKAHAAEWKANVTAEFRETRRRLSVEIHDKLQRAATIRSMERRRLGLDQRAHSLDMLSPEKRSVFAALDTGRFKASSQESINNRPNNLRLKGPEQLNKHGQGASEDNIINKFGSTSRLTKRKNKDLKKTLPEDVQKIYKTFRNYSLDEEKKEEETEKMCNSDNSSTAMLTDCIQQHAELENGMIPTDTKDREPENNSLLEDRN

[12] = biological target: T1, Potassium channel subfamily K member 2 (Homo sapiens); experiment: Inhibition of human TREK1 R207A mutant at intermediate transition state expressed in CHO cells by whole-cell patch-clamp electrophysiological method
[13] = biological target: T1, Potassium channel subfamily K member 2 (Homo sapiens); experiment: Effect on channel conductance of human TREK1 expressed in CHO cells by single-channel recordings based by inside-out patch method
[14] = biological target: T1, Potassium channel subfamily K member 2 (Homo sapiens); experiment: Inhibition of human TREK1 at intermediate transition state expressed in CHO cells assessed as decrease in probability of TREK1 channel being in open state by single-channel recordings based by inside-out patch method

Compound | inhibition [1] | IC50 [2] [nM] | inhibition [3] | inhibition [4] | inhibition [5] | inhibition [6] | inhibition [7] | inhibition [8] | inhibition [9] | inhibition [10] | inhibition [11] | inhibition [12] | Activity [13] | inhibition [14]
O=C(CSc1ccc2ccccc2n1)NNC(=O)c1ccc(Cl)cc1 | Dose-dependent effect | 2990 | inactive | inactive | inactive | inactive | inactive | inactive | Active | Active | Active | Active | inactive | Active
COc1ccc2nc(SCC(=O)NNC(=O)c3ccc(Cl)cc3)ccc2c1 | Active |  |  |  |  |  | Active |  |  | inactive |  |  |  | 
O=C(CSc1ccc2cc(F)ccc2n1)NNC(=O)c1ccc(Cl)cc1 | Active |  |  |  |  |  | inactive |  |  | Active |  |  |  | 
CNCCC(Oc1ccc(C(F)(F)F)cc1)c1ccccc1 (stereo unspecified) |  |  |  |  |  |  |  |  |  |  |  | inactive |  | 
